Measurements taken from the NIST ThermoML archive (doi:10.1016/j.jct.2014.04.022).
Several values for one entry are separate records, joined by “and”; a condition that tells them apart may be missing. Equal values may be shown once. Numbers after ± are expanded uncertainties.

How the values were obtained:
[1] = Liquid
[2] = molar heat capacity at constant pressure; details: 101.33 kPa, Liquid
[3] = 273.65 K, Closed cell (Static) method
[4] = 278.15 K, Closed cell (Static) method
[5] = 283.15 K, Closed cell (Static) method
[6] = 288.15 K, Closed cell (Static) method
[7] = 293.15 K, Closed cell (Static) method
[8] = 298.15 K, Closed cell (Static) method
[9] = 303.15 K, Closed cell (Static) method
[10] = 308.15 K, Closed cell (Static) method
[11] = 260.1 K, Large sample (1 g) DSC

## CC1=CC[C@@H]2[C@H](C1)C2(C)C [(+)-3-carene]
[1]; 238.2 K, Closed cell (Static) method
  vapor or sublimation pressure: 0.00159 ± 0.00012 kPa and 0.001592 ± 0.00012 kPa and 0.001594 ± 0.00012 kPa
[1]; 243.2 K, Closed cell (Static) method
  vapor or sublimation pressure: 0.002721 ± 0.00015 kPa and 0.002723 ± 0.00015 kPa
[1]; 248.15 K, Closed cell (Static) method
  vapor or sublimation pressure: 0.004526 ± 0.0002 kPa and 0.004529 ± 0.0002 kPa
[1]; 253.15 K, Closed cell (Static) method
  vapor or sublimation pressure: 0.007382 ± 0.0003 kPa and 0.007383 ± 0.0003 kPa and 0.007377 ± 0.0003 kPa
[1]; 258.15 K, Closed cell (Static) method
  vapor or sublimation pressure: 0.01179 ± 0.00047 kPa and 0.0118 ± 0.00047 kPa
[1]; 263.15 K, Closed cell (Static) method
  vapor or sublimation pressure: 0.01845 ± 0.0006 kPa and 0.01846 ± 0.0006 kPa
[1]; 268.15 K, Closed cell (Static) method
  vapor or sublimation pressure: 0.02832 ± 0.00075 kPa and 0.02833 ± 0.00075 kPa
[1]; 273.15 K
  vapor or sublimation pressure: 0.04241 ± 0.0022 kPa and 0.04243 ± 0.0022 kPa and 0.04244 ± 0.0022 kPa
[1]; 273.15 K, Closed cell (Static) method
  vapor or sublimation pressure: 0.04266 ± 0.00099 kPa and 0.04267 ± 0.00099 kPa
[1]; [3]
  vapor or sublimation pressure: 0.0444 ± 0.001 kPa and 0.04442 ± 0.001 kPa and 0.04443 ± 0.001 kPa
[1]; 278.15 K
  vapor or sublimation pressure: 0.06282 ± 0.0029 kPa and 0.06283 ± 0.0029 kPa
[1]; [4]
  vapor or sublimation pressure: 0.06318 ± 0.0014 kPa and 0.06319 ± 0.0014 kPa
[1]; 283.15 K
  vapor or sublimation pressure: 0.09152 ± 0.004 kPa and 0.09153 ± 0.004 kPa and 0.09154 ± 0.004 kPa
[1]; [5]
  vapor or sublimation pressure: 0.09204 ± 0.0019 kPa and 0.09205 ± 0.0019 kPa
[1]; 288.15 K
  vapor or sublimation pressure: 0.1313 ± 0.0051 kPa
[1]; [6]
  vapor or sublimation pressure: 0.1321 ± 0.0023 kPa
[1]; 293.15 K
  vapor or sublimation pressure: 0.1855 ± 0.0065 kPa
[1]; [7]
  vapor or sublimation pressure: 0.1868 ± 0.003 kPa
[1]; 298.15 K
  vapor or sublimation pressure: 0.2584 ± 0.0086 kPa and 0.2585 ± 0.0086 kPa
[1]; [8]
  vapor or sublimation pressure: 0.2604 ± 0.0039 kPa and 0.2605 ± 0.0039 kPa
[1]; 303.15 K
  vapor or sublimation pressure: 0.3553 ± 0.011 kPa
[1]; [9]
  vapor or sublimation pressure: 0.3585 ± 0.0051 kPa
[1]; 308.15 K
  vapor or sublimation pressure: 0.4825 ± 0.015 kPa
[1]; [10]
  vapor or sublimation pressure: 0.4873 ± 0.0066 kPa
[2]; 258.1 K
  molar heat capacity at constant pressure: 235.6 ± 7.3 J/K/mol
[2]; [11]
  molar heat capacity at constant pressure: 236.9 ± 4.1 J/K/mol
[2]; 263.2 K
  molar heat capacity at constant pressure: 237.8 ± 7.4 J/K/mol
[2]; 265 K, Large sample (1 g) DSC
  molar heat capacity at constant pressure: 239.2 ± 4.2 J/K/mol
[2]; 268.3 K
  molar heat capacity at constant pressure: 240.2 ± 7.5 J/K/mol
[2]; 270 K, Large sample (1 g) DSC
  molar heat capacity at constant pressure: 241.6 ± 4.2 J/K/mol
[2]; 273.4 K
  molar heat capacity at constant pressure: 242.4 ± 7.5 J/K/mol
[2]; 275 K, Large sample (1 g) DSC
  molar heat capacity at constant pressure: 244.1 ± 4.2 J/K/mol
[2]; 278.5 K
  molar heat capacity at constant pressure: 244.9 ± 7.6 J/K/mol
[2]; 280 K, Large sample (1 g) DSC
  molar heat capacity at constant pressure: 246.3 ± 4.2 J/K/mol
[2]; 283.6 K
  molar heat capacity at constant pressure: 247.2 ± 7.6 J/K/mol
[2]; 285 K, Large sample (1 g) DSC
  molar heat capacity at constant pressure: 248.4 ± 4.3 J/K/mol
[2]; 288.7 K
  molar heat capacity at constant pressure: 249.6 ± 7.7 J/K/mol
[2]; 290 K, Large sample (1 g) DSC
  molar heat capacity at constant pressure: 250.6 ± 4.3 J/K/mol
[2]; 293.8 K
  molar heat capacity at constant pressure: 251.9 ± 7.8 J/K/mol
[2]; 295 K, Large sample (1 g) DSC
  molar heat capacity at constant pressure: 252.6 ± 4.4 J/K/mol
[2]; 298.9 K
  molar heat capacity at constant pressure: 254.3 ± 7.9 J/K/mol
[2]; 300 K, Large sample (1 g) DSC
  molar heat capacity at constant pressure: 254.8 ± 4.4 J/K/mol
[2]; 304 K
  molar heat capacity at constant pressure: 256.6 ± 8 J/K/mol
[2]; 305 K, Large sample (1 g) DSC
  molar heat capacity at constant pressure: 257.2 ± 4.5 J/K/mol
[2]; 309.1 K
  molar heat capacity at constant pressure: 259 ± 8.1 J/K/mol
[2]; 310 K, Large sample (1 g) DSC
  molar heat capacity at constant pressure: 259.6 ± 4.5 J/K/mol
[2]; 314.2 K
  molar heat capacity at constant pressure: 261.4 ± 8.1 J/K/mol
[2]; 319.4 K
  molar heat capacity at constant pressure: 263.7 ± 8.1 J/K/mol
[2]; 324.5 K
  molar heat capacity at constant pressure: 266.3 ± 8.2 J/K/mol
[2]; 329.6 K
  molar heat capacity at constant pressure: 268.9 ± 8.3 J/K/mol
[2]; 334.7 K
  molar heat capacity at constant pressure: 271.5 ± 8.4 J/K/mol
[2]; 339.8 K
  molar heat capacity at constant pressure: 274 ± 8.5 J/K/mol
[2]; 344.9 K
  molar heat capacity at constant pressure: 276.6 ± 8.6 J/K/mol
[2]; 350 K
  molar heat capacity at constant pressure: 279.3 ± 8.6 J/K/mol
[2]; 355.1 K
  molar heat capacity at constant pressure: 281.8 ± 8.7 J/K/mol

## C=C(C)[C@@H]1CC=C(C)CC1 [(S)-1-methyl-4-(1-methylethenyl)cyclohexene]
[1]; [3]
  vapor or sublimation pressure: 0.03073 ± 0.00079 kPa and 0.03074 ± 0.00079 kPa and 0.03075 ± 0.00079 kPa
[1]; [4]
  vapor or sublimation pressure: 0.0441 ± 0.001 kPa and 0.04411 ± 0.001 kPa
[1]; [5]
  vapor or sublimation pressure: 0.06487 ± 0.0014 kPa and 0.06488 ± 0.0014 kPa and 0.0649 ± 0.0014 kPa
[1]; [6]
  vapor or sublimation pressure: 0.09392 ± 0.0019 kPa and 0.09395 ± 0.0019 kPa
[1]; [7]
  vapor or sublimation pressure: 0.1339 ± 0.0023 kPa
[1]; [8]
  vapor or sublimation pressure: 0.1883 ± 0.003 kPa
[1]; [9]
  vapor or sublimation pressure: 0.2609 ± 0.0039 kPa and 0.261 ± 0.0039 kPa
[1]; [10]
  vapor or sublimation pressure: 0.3575 ± 0.005 kPa and 0.3576 ± 0.005 kPa
[2]; [11]
  molar heat capacity at constant pressure: 240.3 ± 4.2 J/K/mol
[2]; 265 K, Large sample (1 g) DSC
  molar heat capacity at constant pressure: 242.5 ± 4.2 J/K/mol
[2]; 270 K, Large sample (1 g) DSC
  molar heat capacity at constant pressure: 244.8 ± 4.2 J/K/mol
[2]; 275 K, Large sample (1 g) DSC
  molar heat capacity at constant pressure: 247.1 ± 4.2 J/K/mol
[2]; 280 K, Large sample (1 g) DSC
  molar heat capacity at constant pressure: 249.2 ± 4.3 J/K/mol
[2]; 285 K, Large sample (1 g) DSC
  molar heat capacity at constant pressure: 251.3 ± 4.3 J/K/mol
[2]; 290 K, Large sample (1 g) DSC
  molar heat capacity at constant pressure: 253.4 ± 4.4 J/K/mol
[2]; 295 K, Large sample (1 g) DSC
  molar heat capacity at constant pressure: 255.8 ± 4.4 J/K/mol
[2]; 300 K, Large sample (1 g) DSC
  molar heat capacity at constant pressure: 257.8 ± 4.5 J/K/mol
[2]; 305 K, Large sample (1 g) DSC
  molar heat capacity at constant pressure: 260.2 ± 4.5 J/K/mol
[2]; 310 K, Large sample (1 g) DSC
  molar heat capacity at constant pressure: 262.5 ± 4.6 J/K/mol
